# From patent US9580444B2, “Polycyclic pyrazolinone derivative and herbicide comprising same as effective component thereof” (priority 2013, dated 2017)
# Tested on: Echinochloa oryzicola (barnyard grass)
# Experiment: Test Example-1: herbicidal effect by a treatment before weeds are generated under submerged conditions
# Assay type: in vivo
# Conditions: 500 g a.i/ha, pre-emergence treatment, about 15 days after treatment, score 0-5
# Experimental: (§1) Using the formulation prepared according to the methods described above, the herbicidal effect of the bicyclic pyrazolinone derivative of the invention according to the methods shown in Test Examples below was examined. The herbicidal effect with respect to the test weeds or the phytotoxicity with respect to the test crops was examined according to the following criteria, and evaluated in six stage scores of 0 to 5.
# (§2) A plastic cup of 30 cm^2 was filled with paddy soil, soil puddling was performed, seeds of Echinochloa oryzicola (barnyard grass), Cyperus difformis (smallflower umbrella plant), Monochoria vaginalis (monochoria), Scirpus juncoides (bulrush), and Eleocharis acicularis (needle spikerush), and Lindernia procumbens (common false pimpernel), Rotala indica (indian toothcup), Elatine triandra (waterwort) as other annual broad leaf weeds were seeded therein, and kept in a submerged state. A wettable powder or an emulsifiable concentrate of the compound of the present invention prepared according to Formulation Example was diluted on the weed seeding day, and a submersing treatment was performed so as to be a predetermined dosage. The herbicidal effect with respect to the test weeds about 15 days after the treatment was evaluated according to the evaluation criteria in six stages of 0 to 5 described above.
row,SMILES,Herbicidal effect Echinochloa oryzicola
1,CCOC(=CC(=O)OC)COc1cc(-c2c(Cl)n3n(c2=O)CCCC3)c(F)cc1Cl (mixture of isomers) [Compound 2-12],5 (Herbicidal effect/phytotoxicity was 90% or greater)
2,O=c1c(-c2cc(OC3C=CCCC3)c(Cl)cc2F)c(Cl)n2n1CCCC2 (stereo not drawn) [Example 1-232],5 (Herbicidal effect/phytotoxicity was 90% or greater)
3,O=c1c(-c2ccc(Cl)cc2F)c(Cl)n2n1CCOCC2 [Example 1-129],5 (Herbicidal effect/phytotoxicity was 90% or greater)
4,COc1cccc(Oc2cc(-c3c(Cl)n4n(c3=O)CCCC4)c(F)cc2Cl)c1 [Compound 3-5],5 (Herbicidal effect/phytotoxicity was 90% or greater)
5,O=c1c(-c2cc(Oc3cccc(O)c3)c(Cl)cc2F)c(Cl)n2n1CCCC2 [Compound 3-4],5 (Herbicidal effect/phytotoxicity was 90% or greater)
6,C=CCOc1ccccc1Oc1cc(-c2c(Cl)n3n(c2=O)CCCC3)c(F)cc1Cl [Compound 3-27],5 (Herbicidal effect/phytotoxicity was 90% or greater)
7,O=c1c(-c2ccc(Cl)cc2Cl)c(Cl)n2n1CCCC2 [Example 1-280],5 (Herbicidal effect/phytotoxicity was 90% or greater)

# Tested on: Scirpus juncoides (bulrush)
# Experiment: as above
# Assay type: in vivo
# Conditions: 500 g a.i/ha, pre-emergence treatment, about 15 days after treatment, score 0-5
# Experimental: as §1, §2
row,SMILES,Herbicidal effect Scirpus juncoides
1,CCOC(=CC(=O)OC)COc1cc(-c2c(Cl)n3n(c2=O)CCCC3)c(F)cc1Cl (mixture of isomers) [Compound 2-12],5 (Herbicidal effect/phytotoxicity was 90% or greater)
2,O=c1c(-c2cc(OC3C=CCCC3)c(Cl)cc2F)c(Cl)n2n1CCCC2 (stereo not drawn) [Example 1-232],5 (Herbicidal effect/phytotoxicity was 90% or greater)
3,O=c1c(-c2ccc(Cl)cc2F)c(Cl)n2n1CCOCC2 [Example 1-129],5 (Herbicidal effect/phytotoxicity was 90% or greater)
4,COc1cccc(Oc2cc(-c3c(Cl)n4n(c3=O)CCCC4)c(F)cc2Cl)c1 [Compound 3-5],5 (Herbicidal effect/phytotoxicity was 90% or greater)
5,O=c1c(-c2cc(Oc3cccc(O)c3)c(Cl)cc2F)c(Cl)n2n1CCCC2 [Compound 3-4],5 (Herbicidal effect/phytotoxicity was 90% or greater)
6,C=CCOc1ccccc1Oc1cc(-c2c(Cl)n3n(c2=O)CCCC3)c(F)cc1Cl [Compound 3-27],5 (Herbicidal effect/phytotoxicity was 90% or greater)
7,O=c1c(-c2ccc(Cl)cc2Cl)c(Cl)n2n1CCCC2 [Example 1-280],5 (Herbicidal effect/phytotoxicity was 90% or greater)

# Tested on: Cyperus difformis (smallflower umbrella plant)
# Experiment: as above
# Assay type: in vivo
# Conditions: 500 g a.i/ha, pre-emergence treatment, about 15 days after treatment, score 0-5
# Experimental: as §1, §2
row,SMILES,Herbicidal effect Cyperus difformis
1,CCOC(=CC(=O)OC)COc1cc(-c2c(Cl)n3n(c2=O)CCCC3)c(F)cc1Cl (mixture of isomers) [Compound 2-12],5 (Herbicidal effect/phytotoxicity was 90% or greater)
2,O=c1c(-c2cc(OC3C=CCCC3)c(Cl)cc2F)c(Cl)n2n1CCCC2 (stereo not drawn) [Example 1-232],5 (Herbicidal effect/phytotoxicity was 90% or greater)
3,O=c1c(-c2ccc(Cl)cc2F)c(Cl)n2n1CCOCC2 [Example 1-129],5 (Herbicidal effect/phytotoxicity was 90% or greater)
4,COc1cccc(Oc2cc(-c3c(Cl)n4n(c3=O)CCCC4)c(F)cc2Cl)c1 [Compound 3-5],5 (Herbicidal effect/phytotoxicity was 90% or greater)
5,O=c1c(-c2cc(Oc3cccc(O)c3)c(Cl)cc2F)c(Cl)n2n1CCCC2 [Compound 3-4],5 (Herbicidal effect/phytotoxicity was 90% or greater)
6,C=CCOc1ccccc1Oc1cc(-c2c(Cl)n3n(c2=O)CCCC3)c(F)cc1Cl [Compound 3-27],5 (Herbicidal effect/phytotoxicity was 90% or greater)
7,O=c1c(-c2ccc(Cl)cc2Cl)c(Cl)n2n1CCCC2 [Example 1-280],5 (Herbicidal effect/phytotoxicity was 90% or greater)

# Tested on: Eleocharis acicularis (needle spikerush)
# Experiment: as above
# Assay type: in vivo
# Conditions: 500 g a.i/ha, pre-emergence treatment, about 15 days after treatment, score 0-5
# Experimental: as §1, §2
row,SMILES,Herbicidal effect Eleocharis acicularis
1,CCOC(=CC(=O)OC)COc1cc(-c2c(Cl)n3n(c2=O)CCCC3)c(F)cc1Cl (mixture of isomers) [Compound 2-12],5 (Herbicidal effect/phytotoxicity was 90% or greater)
2,O=c1c(-c2cc(OC3C=CCCC3)c(Cl)cc2F)c(Cl)n2n1CCCC2 (stereo not drawn) [Example 1-232],5 (Herbicidal effect/phytotoxicity was 90% or greater)
3,O=c1c(-c2ccc(Cl)cc2F)c(Cl)n2n1CCOCC2 [Example 1-129],5 (Herbicidal effect/phytotoxicity was 90% or greater)
4,COc1cccc(Oc2cc(-c3c(Cl)n4n(c3=O)CCCC4)c(F)cc2Cl)c1 [Compound 3-5],5 (Herbicidal effect/phytotoxicity was 90% or greater)
5,O=c1c(-c2cc(Oc3cccc(O)c3)c(Cl)cc2F)c(Cl)n2n1CCCC2 [Compound 3-4],5 (Herbicidal effect/phytotoxicity was 90% or greater)
6,C=CCOc1ccccc1Oc1cc(-c2c(Cl)n3n(c2=O)CCCC3)c(F)cc1Cl [Compound 3-27],5 (Herbicidal effect/phytotoxicity was 90% or greater)
7,O=c1c(-c2ccc(Cl)cc2Cl)c(Cl)n2n1CCCC2 [Example 1-280],5 (Herbicidal effect/phytotoxicity was 90% or greater)

# Tested on: Monochoria vaginalis (monochoria)
# Experiment: as above
# Assay type: in vivo
# Conditions: 500 g a.i/ha, pre-emergence treatment, about 15 days after treatment, score 0-5
# Experimental: as §1, §2
row,SMILES,Herbicidal effect Monochoria vaginalis
1,CCOC(=CC(=O)OC)COc1cc(-c2c(Cl)n3n(c2=O)CCCC3)c(F)cc1Cl (mixture of isomers) [Compound 2-12],5 (Herbicidal effect/phytotoxicity was 90% or greater)
2,O=c1c(-c2cc(OC3C=CCCC3)c(Cl)cc2F)c(Cl)n2n1CCCC2 (stereo not drawn) [Example 1-232],5 (Herbicidal effect/phytotoxicity was 90% or greater)
3,O=c1c(-c2ccc(Cl)cc2F)c(Cl)n2n1CCOCC2 [Example 1-129],5 (Herbicidal effect/phytotoxicity was 90% or greater)
4,COc1cccc(Oc2cc(-c3c(Cl)n4n(c3=O)CCCC4)c(F)cc2Cl)c1 [Compound 3-5],5 (Herbicidal effect/phytotoxicity was 90% or greater)
5,O=c1c(-c2cc(Oc3cccc(O)c3)c(Cl)cc2F)c(Cl)n2n1CCCC2 [Compound 3-4],5 (Herbicidal effect/phytotoxicity was 90% or greater)
6,C=CCOc1ccccc1Oc1cc(-c2c(Cl)n3n(c2=O)CCCC3)c(F)cc1Cl [Compound 3-27],5 (Herbicidal effect/phytotoxicity was 90% or greater)
7,O=c1c(-c2ccc(Cl)cc2Cl)c(Cl)n2n1CCCC2 [Example 1-280],5 (Herbicidal effect/phytotoxicity was 90% or greater)

# Tested on: other annual broad leaf weeds (Lindernia procumbens, Rotala indica, Elatine triandra)
# Experiment: as above
# Assay type: in vivo
# Conditions: 500 g a.i/ha, pre-emergence treatment, about 15 days after treatment, score 0-5
# Experimental: as §1, §2
row,SMILES,Herbicidal effect Broadleaf weed
1,CCOC(=CC(=O)OC)COc1cc(-c2c(Cl)n3n(c2=O)CCCC3)c(F)cc1Cl (mixture of isomers) [Compound 2-12],5 (Herbicidal effect/phytotoxicity was 90% or greater)
2,O=c1c(-c2cc(OC3C=CCCC3)c(Cl)cc2F)c(Cl)n2n1CCCC2 (stereo not drawn) [Example 1-232],5 (Herbicidal effect/phytotoxicity was 90% or greater)
3,O=c1c(-c2ccc(Cl)cc2F)c(Cl)n2n1CCOCC2 [Example 1-129],5 (Herbicidal effect/phytotoxicity was 90% or greater)
4,COc1cccc(Oc2cc(-c3c(Cl)n4n(c3=O)CCCC4)c(F)cc2Cl)c1 [Compound 3-5],5 (Herbicidal effect/phytotoxicity was 90% or greater)
5,O=c1c(-c2cc(Oc3cccc(O)c3)c(Cl)cc2F)c(Cl)n2n1CCCC2 [Compound 3-4],5 (Herbicidal effect/phytotoxicity was 90% or greater)
6,C=CCOc1ccccc1Oc1cc(-c2c(Cl)n3n(c2=O)CCCC3)c(F)cc1Cl [Compound 3-27],5 (Herbicidal effect/phytotoxicity was 90% or greater)
7,O=c1c(-c2ccc(Cl)cc2Cl)c(Cl)n2n1CCCC2 [Example 1-280],5 (Herbicidal effect/phytotoxicity was 90% or greater)
